From patent publication US7507860B2 (Pfizer Inc., priority 2004, dated 2009)
Where a chain is given by its changes, count along the chain named. Where two headings read alike, the source gives them in different places.

Columns and labels:
[1] = target: T1, human androgen receptor (hAR) (Homo sapiens, UniProt P10275); assay: Competitive binding analysis on baculovirus/Sf9 generated hAR extracts with 3H-DHT tracer; settings: hAR extract, 1 nM 3H-DHT, one hour at 4° C, mean of multiple tests
T1 construct: made in house; host or cells: baculovirus/Sf9 insect cells (crude extract)
T1 sequence (P10275 1-920): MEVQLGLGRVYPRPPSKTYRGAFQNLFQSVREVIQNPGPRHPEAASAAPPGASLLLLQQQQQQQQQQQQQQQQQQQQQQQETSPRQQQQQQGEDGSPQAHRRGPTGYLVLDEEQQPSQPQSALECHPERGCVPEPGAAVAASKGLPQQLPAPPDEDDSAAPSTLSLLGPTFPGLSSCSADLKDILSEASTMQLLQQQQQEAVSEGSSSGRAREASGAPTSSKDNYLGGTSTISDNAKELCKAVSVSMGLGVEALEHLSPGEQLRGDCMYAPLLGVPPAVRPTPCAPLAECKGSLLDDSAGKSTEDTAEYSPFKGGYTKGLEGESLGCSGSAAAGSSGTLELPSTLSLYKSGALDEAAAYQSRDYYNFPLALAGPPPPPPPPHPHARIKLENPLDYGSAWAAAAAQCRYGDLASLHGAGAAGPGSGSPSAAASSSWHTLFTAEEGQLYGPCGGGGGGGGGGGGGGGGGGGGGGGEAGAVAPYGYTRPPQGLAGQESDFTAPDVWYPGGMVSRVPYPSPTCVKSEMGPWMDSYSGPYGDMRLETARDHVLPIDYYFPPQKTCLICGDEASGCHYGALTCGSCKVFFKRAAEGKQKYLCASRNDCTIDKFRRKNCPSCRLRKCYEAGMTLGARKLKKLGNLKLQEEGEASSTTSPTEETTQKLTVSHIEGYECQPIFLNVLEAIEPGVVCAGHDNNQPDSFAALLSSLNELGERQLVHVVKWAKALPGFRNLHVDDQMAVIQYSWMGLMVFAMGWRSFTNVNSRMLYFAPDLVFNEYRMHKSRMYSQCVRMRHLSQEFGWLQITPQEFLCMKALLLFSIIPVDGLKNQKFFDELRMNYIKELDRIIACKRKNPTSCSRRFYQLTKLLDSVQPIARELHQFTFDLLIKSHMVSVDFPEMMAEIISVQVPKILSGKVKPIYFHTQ
In short: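 Baculovirus/Sf9-expressed hAR extract incubated with hydroxylapatite, 1 nM 3H-DHT and decreasing compound concentrations for 1 h at 4 °C, then washed three times to remove unbound tracer. Bound 3H-DHT compared with no-competitor maximum; affinity given as concentration inhibiting half of maximum binding, mean of multiple tests.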

androgen receptor = target: T2, androgen receptor (Homo sapiens, UniProt P10275); assay: AR antagonist cell assay (MDA-MB453-MMTV clone 54-19 luciferase reporter, 100 pM DHT); assay type: cell-based
T2 sequence (P10275 1-920 Q868H): T1 sequence (P10275 1-920) with Q868H
Experimental: The compounds ability to antagonize the effects of androgen on the androgen receptor were determined in a whole cell assay as described immediately below.
Experimental Procedure for AR Antagonist Cell Assay
This cell line is a stable transfected cell line with MDA-MB453 cell background (a human breast tumor cell line expressing androgen receptor). A MMTV minimal promoter containing ARE was first cloned in front of a firefly luciferase reporter gene. Then the cascade was cloned into transfection vector pUV120puro. […] Puromycin resistant stable cell line was selected. Cell Culture Media and Reagents:
Plating medium: DMEM (phenol red free), 10% charcoal treated HyClone serum, 1% L-glutamine
Assay medium: DMEM (phenol red free), 1% charcoal treated HyClone serum, 1% L-glutamine, and 1% penicillin/streptomycin
• 1. Cells are maintained in culture medium, splitting cells when they reach 80-90% confluence • 2. To test compounds, 10,000 cells/well are plated to opaque 96 cell culture plate in 100 ul/well plating medium, culture for overnight at 37° C. in cell culture incubator • 3. […] Add 10 ul/well freshly prepared DHT (final concentration at 100 pM) to each well, incubate at 37° C. for 17 hr (overnight) • 5.
The results are reported as the mean of multiple tests as described below (the numbers of tests are indicated in the footnote). N.D. denotes that the compound was not tested.

[2] = MDA-MB453-MMTV clone 54-19, inhibition of 100 pM DHT induction, 17 hr; mean of multiple tests; read-out: AR Cell IC50
[3] = read-out: AR Cell IC50; MDA-MB453-MMTV clone 54-19, inhibition of 100 pM DHT induction, 17 hr; mean of multiple tests

SMILES | IC50 ([1]; read-out: AR Binding IC50) | IC50 (androgen receptor; [2]) | IC50 (androgen receptor; [3]) | IC50 ([1]; AR Binding IC50 (nM))
CC(C)CC(Oc1ccc(C#N)c(C(F)(F)F)c1)C(=O)NCc1ccc2nsnc2c1 (centres unmarked) [Example 26, 2-(4-Cyano-3-trifluoromethyl-phenoxy)-4-methyl-pentanoic acid (benzo[1,2,5]thiadiazol-5-yl-methyl)-amide] | 67 nM | > 1000 nM | – | –
CC(C)CC(Oc1ccc(C#N)c(C(F)(F)F)c1)C(=O)NCC1CC1 (centres unmarked) [Example 7, 2-(4-Cyano-3-trifluoromethyl-phenoxy)-4-methyl-pentanoic acid cyclopropylmethyl-amide] | 107 nM | 661 nM | – | –
CCCC(Oc1ccc(C#N)c(C(F)(F)F)c1)C(=O)NCc1cccc(C)c1 (centres unmarked) [Example 43, 2-(4-Cyano-3-trifluoromethyl-phenoxy)-pentanoic acid-3-methyl-benzylamide] | 99 nM | 105 nM | – | –
CCCC(Oc1ccc(C#N)c(C(F)(F)F)c1)C(=O)NCCc1c[nH]c2ccc(OC)cc12 (centres unmarked) [Example 97, 2-(4-Cyano-3-trifluoromethyl-phenoxy)-pentanoic acid [2-(5-methoxy-1H-indol-3-yl)-ethyl]-amide] | 111 nM | – | 26 nM | –
CC(C)CCNC(=O)C(CC(C)C)Oc1ccc(C#N)c(C(F)(F)F)c1 (centres unmarked) [Example 22, 2-(4-Cyano-3-trifluoromethyl-phenoxy)-4-methyl-pentanoic acid (3-methyl-butyl)amide] | 178 nM | > 1000 nM | – | –
CCCC(Oc1ccc(C#N)c(C(F)(F)F)c1)C(=O)NCc1ccc2c(c1)CCO2 (centres unmarked) [Example 30, 2-(4-Cyano-3-trifluoromethyl-phenoxy)-pentanoic acid (2,3-dihydro-benzofuran-5-yl-methyl)-amide] | 134 nM | 355 nM | – | –
CCOc1ccccc1CNC(=O)C(CC(C)C)Oc1ccc(C#N)c(C(F)(F)F)c1 (centres unmarked) [Example 36, 2-(4-Cyano-3-trifluoromethyl-phenoxy)-4-methyl-pentanoic acid-2-ethoxy-benzylamide] | 42 nM | > 1000 nM | – | –
CCCC(Oc1ccc(C#N)c(C(F)(F)F)c1)C(=O)N[C@H](C)c1ccc(O)cc1 (stereo in doubt) [Example 119, 2-(4-Cyano-3-trifluoromethyl-phenoxy)-pentanoic acid [1-(4-hydroxy-phenyl)-ethyl]-amide] | 86 nM | 117 nM | – | –
CCCC(Oc1ccc(C#N)c(C(F)(F)F)c1)C(=O)NCc1ccccc1OC (centres unmarked) [Example 41, 2-(4-Cyano-3-trifluoromethyl-phenoxy)-pentanoic acid-2-methoxy-benzylamide] | 171 nM | 130 nM | – | –
CCCC(Oc1ccc(C#N)c(C(F)(F)F)c1)C(=O)NC(C)c1ccc(OC)cc1 (centres unmarked) [Example 113, 2-(4-Cyano-3-trifluoromethyl-phenoxy)-pentanoic acid [1-(4-methoxy-phenyl)-ethyl]-amide] | 654 nM | 681 nM | – | –
CCCC(Oc1ccc(C#N)c(C(F)(F)F)c1)C(=O)NCC (centres unmarked) [Example 5, 2-(4-Cyano-3-trifluoromethyl-phenoxy)-pentanoic acid ethylamide] | 277 nM | > 1000 nM | – | –
CC(C)CC(Oc1ccc(C#N)c(C(F)(F)F)c1)C(=O)NC1CCc2ccccc21 (centres unmarked) [Example 54, 2-(4-Cyano-3-trifluoromethyl-phenoxy)-4-methyl-pentanoic acid indan-1-yl-amide] | 70 nM | 836 nM | – | –
CCC[C@H](Oc1ccc(C#N)c(C(F)(F)F)c1)C(=O)NCCc1c[nH]c2ccccc12 [Example 108, (S)-2-(4-Cyano-3-trifluoromethyl-phenoxy)-pentanoic acid [2-(1H-indol-3-yl)ethyl]-amide] | 21 nM | < 0.32 nM | – | –
CCC(Oc1ccc(C#N)c(C(F)(F)F)c1)C(=O)NCc1ccccc1 (centres unmarked) [Example 93, N-Benzyl-2-(4-Cyano-3-trifluoromethyl-phenoxy)-butyramide] | – | 563 nM | – | 485 nM
CC(C)CC(Oc1ccc(C#N)c(C(F)(F)F)c1)C(=O)NCCc1c[nH]c2ccccc12 (centres unmarked) [Example 59, 2-(4-Cyano-3-trifluoromethyl-phenoxy)-4-methyl-pentanoic acid [2-(1H-indol-3-yl)ethyl]amide] | 48 nM | 101 nM | – | –
CC(C)CC(Oc1ccc(C#N)c(C(F)(F)F)c1)C(=O)NC(C)C (centres unmarked) [Example 2, 2-(4-Cyano-3-trifluoromethyl-phenoxy)-4-methyl-pentanoic acid isopropylamide] | 64 nM | 142 nM | – | –
CCCC(Oc1ccc(C#N)c(C(F)(F)F)c1)C(=O)NCC(C)Oc1ccccc1 (centres unmarked) [Example 55, 2-(4-Cyano-3-trifluoromethyl-phenoxy)-pentanoic acid-(2-phenoxy-propyl)-amide] | 182 nM | 393 nM | – | –
CC(C)CC(Oc1ccc(C#N)c(C(F)(F)F)c1)C(=O)NCCOc1ccccc1 (centres unmarked) [Example 10, 2-(4-Cyano-3-trifluoromethyl-phenoxy)-4-methyl-pentanoic acid (2-phenoxyethyl)-amide] | 91 nM | > 1000 nM | – | –
CCCC(Oc1ccc(C#N)c(C(F)(F)F)c1)C(=O)NCCc1ccc(O)cc1 (centres unmarked) [Example 66] | – | 77 nM | – | 151 nM
COc1cccc(CNC(=O)C(CC(C)C)Oc2ccc(C#N)c(C(F)(F)F)c2)c1 (centres unmarked) [Example 33, 2-(4-Cyano-3-trifluoromethyl-phenoxy)-4-methyl-pentanoic acid-3-methoxy-benzylamide] | 62 nM | 864 nM | – | –
CC(C)CC(Oc1ccc(C#N)c(C(F)(F)F)c1)C(=O)N[C@H](C)c1ccc(O)cc1 (stereo in doubt) [Example 117, 2-(4-Cyano-3-trifluoromethyl-phenoxy)-4-methyl-pentanoic acid [1-(4-hydroxy-phenyl)-ethyl]-amide] | 114 nM | – | 19 nM | –
CCC[C@H](Oc1ccc(C#N)c(C(F)(F)F)c1)C(=O)NCc1cccc(C)c1 [Example 107, (S)-2-(4-Cyano-3-trifluoromethyl-phenoxy)-pentanoic acid-3-methyl-benzylamide] | 93 nM | < 0.32 nM | – | –
